We go through 3 compounds from publication PMC3337333 (Bioorganic & medicinal chemistry letters, 2012).

The subject of one experiment is apoptosis. Conditions: ref [4]; cited from earlier work.
The target in experiment [1] is Hsp90-TPR protein complexes. The conditions noted are these: C-terminal binder; ref [21]; cited from earlier work.
The subject of another experiment is Hsp90 in HCT 116 cells. Put plainly: Immunofluorescence staining of Hsp90 in treated colon cancer cells. The experiment is classed as cell-based. Conditions: 17-AAG 24 hours 200 nM, compound 3 and compound 4 72 hours 5 µM, polyclonal antibody to Hsp90.

Regarding Sansalvamide A-amide [compound 1], the induction of apoptosis result in the experiment on apoptosis is given as “induce apoptosis”. `CO[C@@H]1[C@@H](OC(N)=O)[C@@H](O)[C@H](Oc2ccc3c(O)c(NC(=O)c4ccc(O)c(CC=C(C)C)c4)c(=O)oc3c2C)OC1(C)C` [novobiocin]: the “IC50, inhibition of binding between Hsp90 and four TPR-containing co-chaperones” value in experiment [1] is recorded as “millimolar range”. In the case of `C=CCNC1=C2C[C@@H](C)C[C@H](OC)[C@H](O)[C@@H](C)/C=C(\C)[C@H](OC(N)=O)[C@@H](OC)/C=C\C=C(/C)C(=O)NC(=CC1=O)C2=O` [17-AAG, 17-(allylamino)-17-demethoxygeldanamycin], the “Hsp90 staining in cytosol versus DMSO control” value in the experiment with Hsp90 in HCT 116 cells is “intensify in brightness”.
